Assay [1] addresses T1, Integrin alpha-4 (Homo sapiens, UniProt P13612).
T1 sequence (P13612 whole entry): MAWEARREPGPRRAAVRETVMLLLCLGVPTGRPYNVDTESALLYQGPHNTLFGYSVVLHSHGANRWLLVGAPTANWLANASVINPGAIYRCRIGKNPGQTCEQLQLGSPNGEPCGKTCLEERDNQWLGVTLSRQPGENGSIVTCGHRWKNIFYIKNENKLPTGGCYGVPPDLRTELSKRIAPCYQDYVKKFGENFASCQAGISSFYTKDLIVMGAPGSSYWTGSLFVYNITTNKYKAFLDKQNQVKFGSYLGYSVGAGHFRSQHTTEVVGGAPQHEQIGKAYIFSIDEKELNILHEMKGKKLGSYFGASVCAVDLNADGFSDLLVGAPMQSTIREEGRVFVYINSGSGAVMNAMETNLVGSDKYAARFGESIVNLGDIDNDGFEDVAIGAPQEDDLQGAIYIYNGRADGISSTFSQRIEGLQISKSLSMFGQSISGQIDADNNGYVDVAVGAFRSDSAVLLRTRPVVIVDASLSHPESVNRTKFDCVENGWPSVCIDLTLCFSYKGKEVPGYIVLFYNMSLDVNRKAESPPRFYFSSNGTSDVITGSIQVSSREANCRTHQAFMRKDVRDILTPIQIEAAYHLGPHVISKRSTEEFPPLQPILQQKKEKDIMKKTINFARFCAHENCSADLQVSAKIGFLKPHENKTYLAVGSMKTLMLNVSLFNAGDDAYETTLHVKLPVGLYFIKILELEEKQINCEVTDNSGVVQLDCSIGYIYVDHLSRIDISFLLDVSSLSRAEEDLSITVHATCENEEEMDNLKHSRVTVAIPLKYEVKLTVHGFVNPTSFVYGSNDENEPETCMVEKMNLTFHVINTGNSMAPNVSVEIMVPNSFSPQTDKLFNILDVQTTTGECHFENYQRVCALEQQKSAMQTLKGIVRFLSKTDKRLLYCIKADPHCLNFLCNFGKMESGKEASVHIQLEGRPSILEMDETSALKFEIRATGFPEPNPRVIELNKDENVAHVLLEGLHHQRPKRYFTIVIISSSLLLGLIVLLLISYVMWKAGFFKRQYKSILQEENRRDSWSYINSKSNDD
As to the kind of experiment: Compound was evaluated for VCAM-VLA-4 antagonistic activity using solid phase assay. In kind it is functional.

The target of assay [2] is T1, Integrin alpha-4. In words: Compound was evaluated for VCAM-VLA-4 antagonistic activity using Ramos cell assay. Format: functional, cell-based.

Consider `CC(=O)N1CCC(c2ccc(O)cc2)C1C(=O)N[C@H]1CCSCC[C@@H](C(=O)O)NC(=O)C2(CCCC2)CCNC1=O` (some centres not stated), for which, in assay [1], it took 35 nM to reach half-maximal inhibition (IC50). That is a double-digit nanomolar value.

Consider `CC(=O)N1CCC(c2ccc(O)cc2)C1C(=O)N[C@H]1CCSC[C@@H](C(=O)O)NC(=O)C2(CCCC2)CCNC1=O` (some centres not stated), for which the values for the IC50 in assay [2] and in assay [1] were 220 nM and 2.7 nM, respectively.

Take `CC(=O)N1CCC(c2ccc(O)cc2)C1C(=O)N[C@H]1CSSC[C@@H](C(=O)O)NC(=O)C2(CCCC2)CCNC1=O` (some centres not stated): the IC50 in assay [2] stood at 1.5 nM; in assay [1] it was 0.1 nM.

Take `CC(=O)N1CCC(c2ccc(O)cc2)C1C(=O)N[C@H]1CSCC[C@@H](C(=O)O)NC(=O)C2(CCCC2)CCNC1=O` (some centres not stated): the values for the IC50 in assay [2] and in assay [1] were 20 nM and 0.5 nM, respectively.

(Values after ChEMBL document CHEMBL1132892, “Cyclic thioether peptide mimetics as VCAM-VLA-4 antagonists” (Bioorg Med Chem Lett, 2000).)
